# Measured values published in article PMC13039201 (Scientific Reports, 2026).
# Where two headings read alike, the source gives them in different places.
# Assays:
# anti-HA antibody = assay: SPR injection on the bare anti-HA sensor chip without any immobilized HA; type: binding, rabbits
# [1] = target: HA captured from plasma (ACLF patients, CTRL) (Homo sapiens, UniProt P02768); type: binding; conditions: ACLF n = 6 vs CTRL n = 6, Student's t-test on KD values
# [2] = target: Human serum albumin (HA), commercial HA (Homo sapiens, UniProt P02768)
# HA = conditions: read-out: KD reported in the literature; cited from earlier work
# [3] = target: HA captured from plasma (T2DM-DKD, T2DM+DKD) (Homo sapiens, UniProt P02768); type: binding; conditions: n = 10 each, KD values
# Sequence of HA captured from plasma (T2DM-DKD, T2DM+DKD) (P02768 25-609): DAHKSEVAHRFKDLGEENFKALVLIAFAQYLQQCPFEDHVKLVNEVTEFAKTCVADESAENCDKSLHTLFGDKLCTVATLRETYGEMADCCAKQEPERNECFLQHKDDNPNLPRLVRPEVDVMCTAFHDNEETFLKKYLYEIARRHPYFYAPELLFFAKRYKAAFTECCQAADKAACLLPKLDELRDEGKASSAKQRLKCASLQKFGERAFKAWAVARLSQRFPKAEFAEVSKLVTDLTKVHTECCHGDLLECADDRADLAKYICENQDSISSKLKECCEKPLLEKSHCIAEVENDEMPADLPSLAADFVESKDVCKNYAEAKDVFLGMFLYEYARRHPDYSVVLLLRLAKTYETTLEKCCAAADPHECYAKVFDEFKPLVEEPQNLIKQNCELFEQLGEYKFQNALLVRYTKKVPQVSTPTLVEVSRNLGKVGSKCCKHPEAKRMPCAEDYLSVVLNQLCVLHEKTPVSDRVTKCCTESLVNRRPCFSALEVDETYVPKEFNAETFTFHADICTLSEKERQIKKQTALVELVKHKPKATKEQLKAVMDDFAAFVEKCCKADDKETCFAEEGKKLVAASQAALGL
# Sequence of Human serum albumin (HA), commercial HA (P02768 25-609): as above
# Sequence of HA captured from plasma (ACLF patients, CTRL) (P02768 25-609): as above
Molecule,affinity of HA from ACLF patients compared with HA from CTRL subjects [1],Kd (HA) [µM],further results
"C=CC1=C(C)/C(=C/C2=NC(=C\c3[nH]c(/C=C4\NC(=O)C(C)=C4C=C)c(C)c3CCC(=O)O)/C(CCC(=O)O)=C2C)NC1=O [BVD, biliverdin]",no significant differences,–,interactions with the anti-HA antibody (anti-HA antibody): significant interactions; Kd [2]: 13 ± 3 µM
"CN(C)c1cccc2c(S(=O)(=O)N[C@@H](Cc3ccccc3)C(=O)O)cccc12 [DPA, dansyl-L-phenylalanine]",no significant differences,6,"Kd ([2]; commercial HA captured on chip, steady state 1:1 model, 25 °C, validation): 1.7 ± 0.3 µM"
"CCCCC1C(=O)N(c2ccccc2)N(c2ccccc2)C1=O [PBZ, phenylbutazone]",–,0.12 to 3.3,–
COc1ccc2c3c1O[C@H]1C[C@@H](O)C=C[C@@]31CCN(C)C2 [galantamine],–,–,"interaction with HA (negative control) ([2]; 0.370-30.0 µM, 10 µL/min, 60 s): no interaction"
teicoplanin,reduced its binding affinity,–,binding capacity of HA in T2DM + DKD patients compared with T2DM-DKD [3]: did not significantly affect
